Source: US6737383B1, “Herbicidal oxadiazolidines” (priority 1999, dated 2004)

What was measured:
[1] = test system: cocklebur; experiment: Test B pre/postemergence cocklebur; assay type: in vivo, Xanthium strumarium
In short: (§1)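 Response is a visual 0-to-10 score relative to untreated plants, where 0 means no effect and 10 means complete control, taken twelve to sixteen days after application. Treatments went onto soil at planting and onto foliage of 1- to 4-leaf plants, using a surfactant-containing non-phytotoxic solvent.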

[2] = test system: corn; experiment: Test B pre/postemergence corn; assay type: in vivo, Zea mays
In short: as §1

[3] = test system: crabgrass; experiment: Test B pre/postemergence crabgrass; assay type: in vivo, Digitaria sanguinalis
In short: as §1

[4] = test system: giant foxtail; experiment: Test B pre/postemergence giant foxtail; assay type: in vivo, Setaria faberii
In short: as §1

[5] = test system: morningglory; experiment: Test B pre/postemergence morningglory; assay type: in vivo, Ipomoea hederacea
In short: as §1

[6] = test system: pigweed; experiment: Test B pre/postemergence pigweed; assay type: in vivo, Amaranthus retroflexus
In short: as §1

[7] = test system: rape; experiment: Test B pre/postemergence rape; assay type: in vivo, Brassica napus
In short: as §1

[8] = test system: soybean; experiment: Test B pre/postemergence soybean; assay type: in vivo, Glycine max
In short: as §1

[9] = test system: velvetleaf; experiment: Test B pre/postemergence velvetleaf; assay type: in vivo, Abutilon theophrasti
In short: as §1

[10] = test system: wheat; experiment: Test B pre/postemergence wheat; assay type: in vivo, Triticum aestivum
In short: as §1

[11] = test system: wild oat; experiment: Test B pre/postemergence wild oat; assay type: in vivo, Avena fatua
In short: as §1

[12] = test system: purple nutsedge; experiment: Test B pre/postemergence purple nutsedge; assay type: in vivo, Cyperus rotundus
In short: as §1

[13] = test system: rice; experiment: Test B flood test rice; assay type: in vivo, Oryza sativa
In short: (§2)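 Each value is a visual injury score relative to controls, with 10 meaning complete control and 0 no effect. Evaluation took place twelve to sixteen days after the 2-leaf-stage plants were treated and kept in the greenhouse.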

[14] = test system: smallflower flatsedge; experiment: Test B flood test smallflower flatsedge; assay type: in vivo, Cyperus difformis
In short: as §2

[15] = test system: duck salad; experiment: Test B flood test duck salad; assay type: in vivo, Heteranthera limosa
In short: as §2

[16] = Postemergence, Rate 125 g/ha, scale of 0 to 10 where 0 is no effect and 10 is complete control
[17] = Postemergence, Rate 250 g/ha, scale of 0 to 10, 0 is no effect, 10 is complete control
[18] = Postemergence, Rate 1000 g/ha, scale 0 to 10 (0 no effect, 10 complete control)
[19] = Preemergence, Rate 125 g/ha, scale of 0 to 10 where 0 is no effect and 10 is complete control
[20] = Preemergence, Rate 250 g/ha, scale 0 to 10 (0 no effect, 10 complete control)
[21] = Preemergence, Rate 500 g/ha, scale of 0 to 10 where 0 is no effect and 10 is complete control
[22] = Rate 500 g/ha, Postemergence, scale 0 to 10, 0 is no effect, 10 is complete control
[23] = Rate 1000 g/ha, Preemergence, scale 0 to 10 (0 no effect, 10 complete control)
[24] = Pre-emergence, Rate 1000 g/ha, scale 0 to 10 (0 no effect, 10 complete control)
[25] = Rate 125 g/ha, under heading Pre-emergence, flood test species, visual evaluation after twelve to sixteen days
[26] = Rate 250 g/ha, Pre-emergence (flood test species), scale 0 to 10, 0 is no effect, 10 is complete control
[27] = Rate 500 g/ha, Pre-emergence section of Table B, 0 to 10 scale (0 no effect, 10 complete control)

COP(=O)(CCn1c(=O)on(C(=O)N(c2ccc(F)cc2)C(C)C)c1=O)OC [Compound 662]
1: Corn plant response rating [2, 18] | Plant response rating, Morningglory [5, 21] | Soybean plant response rating [8, 16] | Wild oats plant response rating [11, 16] | Wild oats plant response rating [11, 18] | Wild oats plant response rating [11, 22]
7: Giant foxtail plant response rating [4, 19] | Morningglory plant response rating [5, 16] | Morningglory plant response rating [5, 18] | Morningglory plant response rating [5, 22] | Plant response rating, Redroot pigweed [6, 21] | Plant response rating, Redroot pigweed [6, 23] | Plant response rating, Nutsedge [12, 21]
10: Plant response rating, Giant foxtail [4, 21] | Plant response rating, Giant foxtail [4, 23] | Plant response rating, Nutsedge [12, 23]
2: Plant response rating, Cocklebur [1, 21] | Crabgrass plant response rating [3, 22] | Giant foxtail plant response rating [4, 17] | Soybean plant response rating [8, 22] | Plant response rating, Velvetleaf [9, 21] | Plant response rating, Velvetleaf [9, 23]
8: Crabgrass plant response rating [3, 18] | Giant foxtail plant response rating [4, 18]
5: Cocklebur plant response rating [1, 18] | Plant response rating, Corn [2, 23] | Giant foxtail plant response rating [4, 22] | Plant response rating, Wheat [10, 23] | Nutsedge plant response rating [12, 22]
6: Plant response rating, Crabgrass [3, 21]
0: Cocklebur plant response rating [1, 16] | Cocklebur plant response rating [1, 17] | Cocklebur plant response rating [1, 19] | Plant response rating, Cocklebur [1, 20] | Cocklebur plant response rating [1, 22] | Corn plant response rating [2, 16] | Corn plant response rating [2, 17] | Corn plant response rating [2, 19] | Plant response rating, Corn [2, 20] | Corn plant response rating [2, 22] | Crabgrass plant response rating [3, 16] | Crabgrass plant response rating [3, 17] | Crabgrass plant response rating [3, 19] | Giant foxtail plant response rating [4, 16] | Morningglory plant response rating [5, 19] | Plant response rating, Morningglory [5, 20] | Redroot pigweed plant response rating [6, 16] | Redroot pigweed plant response rating [6, 18] | Redroot pigweed plant response rating [6, 19] | Redroot pigweed plant response rating [6, 22] | Rape plant response rating [7, 16] | Rape plant response rating [7, 18] | Rape plant response rating [7, 19] | Plant response rating, Rape [7, 20] | Plant response rating, Rape [7, 21] | Rape plant response rating [7, 22] | Soybean plant response rating [8, 19] | Plant response rating, Soybean [8, 20] | Plant response rating, Soybean [8, 21] | Velvetleaf plant response rating [9, 16] | Velvetleaf plant response rating [9, 18] | Velvetleaf plant response rating [9, 19] | Plant response rating, Velvetleaf [9, 20] | Velvetleaf plant response rating [9, 22] | Wheat plant response rating [10, 16] | Wheat plant response rating [10, 18] | Wheat plant response rating [10, 19] | Plant response rating, Wheat [10, 20] | Plant response rating, Wheat [10, 21] | Wheat plant response rating [10, 22] | Wild oats plant response rating [11, 19] | Plant response rating, Wild oats [11, 20] | Nutsedge plant response rating [12, 16] | Nutsedge plant response rating [12, 19] | Rice plant response rating [13, 24] | Rice plant response rating (0 to 10 scale, 0 is no effect, 10 is complete control) [13, 25] | Rice plant response rating [13, 26] | Rice plant response rating [13, 27] | S. Flatsedge plant response rating [14, 24] | S. Flatsedge plant response rating (0 to 10 scale, 0 is no effect, 10 is complete control) [14, 25] | S. Flatsedge plant response rating [14, 26] | S. Flatsedge plant response rating [14, 27] | Ducksalad plant response rating [15, 24] | Ducksalad plant response rating (0 to 10 scale, 0 is no effect, 10 is complete control) [15, 25] | Ducksalad plant response rating [15, 26] | Ducksalad plant response rating [15, 27]
4: Plant response rating, Crabgrass [3, 20] | Plant response rating, Rape [7, 23] | Plant response rating, Nutsedge [12, 20]
9: Plant response rating, Cocklebur [1, 23] | Plant response rating, Crabgrass [3, 23] | Plant response rating, Giant foxtail [4, 20] | Morningglory plant response rating [5, 17] | Plant response rating, Wild oats [11, 21] | Plant response rating, Wild oats [11, 23]
3: Plant response rating, Corn [2, 21] | Plant response rating, Morningglory [5, 23] | Plant response rating, Redroot pigweed [6, 20] | Plant response rating, Soybean [8, 23]
